Data set [1] relates to pulmonary fibrosis in bleomycin-induced rats. As to the kind of experiment: Assays of bronchoalveolar lavage fluid in bleomycin-induced pulmonary fibrosis rats. The conditions noted are these: BL-instilled rats, day 28, n=10. Type of data set: in vivo, Sprague-Dawley rats.
Data set [2] has the same test system. As to the kind of experiment: Histopathological / morphologic examination of lungs in bleomycin-induced pulmonary fibrosis rats. In kind it is in vivo, Sprague-Dawley rats. The note with it: for Alveolitis Score 0 (number of rats) / Alveolitis Score I (number of rats) / Alveolitis Score II (number of rats) / Alveolitis Score III (number of rats) / Pulmonary Fibrosis Score 0 (number of rats) / Pulmonary Fibrosis Score I (number of rats) / Pulmonary Fibrosis Score II (number of rats) / Pulmonary Fibrosis Score III (number of rats): BL-instilled rats, day 28, n=10; for pulmonary anti-fibrotic activity: animal experiments (rats).

A short description of another data set: Acute toxicity (LD50). The note with it: in vivo.
The test system of data set [3] is CCl4-induced liver cirrhosis in rats. The data set is described as follows: Hepatic cirrhosis in CCl4-induced rats. Type of data set: in vivo, Sprague-Dawley rats. The conditions noted are these: for ALT decrease / AST decrease: serum, 450 mg/kg by gavage for 3 weeks after 8 weeks CCl4, P<0.001 (FIG. 10). The source says: Animals and method of baicalin dosing: Fibrosis was induced by chronic CCl4 administration to rats. Sprague-Dawley rats weighing 200-240 g received three doses a week i.p. of a mixture 1:6 of CCl4-mineral oil for the first week; then the second week the ratio was 1:5, the third week 1:4, and the 4th-8th weeks the ratio was 1:3 [Armendariz Biochim Biophys Acta 1997;1353:241-252, Armendariz Hepatology 1991;14:895-900.]. CCl4 intoxication was stopped and cirrhotic animals were then fed by gavage either with the baicalin (n=10) at the dosage of 450 mg/kg or saline (n=10) as a control for 3 more weeks.
Statistical analysis: Results relative to the number of experiments indicated, are expressed as mean ±SD. Statistical analyses were perfomed using Student's t-test.
Preparation of liver homogenates: Rats were killed at indicated times and liver homogenates were prepared from 150 mg of tissue as described [Gao Hum Gene Ther 1999;10:911-922.] and kept at −70° C. At the same time, serum samples were obtained and kept at −20° C. until used. Total protein levels in serum were determined using Bradford assay of protein quantification [Bradford Anal Biochem 1976;72:248-254.].
Biochemical assays: Blood was drawn from control and experimental cirrhotic animals at the moment of sacrifice and serum transaminases alanine aminotransferase (ALT), aspartate aminotransferase (AST) and alkaline phosphatase (ALP) were determined in an automated Sincron-7 machine.
Hydroxyproline content biochemical determinations: Liver samples were obtained at the moment of sacrifice and 150 mg were subjected to acid hydrolysis to determine the amount of hydroxyproline according to Rojkind and coworkers [Rojkind Anal Biochem 1974; 57:1-7].

Where [4] appears, read: baicalein by gavage once a day (350 or 450 mg/kg/day).
[5] abbreviates: baicalin 450 mg/kg/day by gavage.

This is an account of results in patent US20050049206A1, “Compositions of flavonoids and flavonoid-containing extracts and the treatment of diseases” (priority 2003, published 2005).

Structures are written as SMILES. “Also recorded” adds a separate entry of the source. Read-outs that look alike come from different tables or passages of the source.

Broadly, the LD50 is the dose expected to kill half of the subjects tested. As to `O=c1cc(-c2ccccc2)oc2cc(O)c(O)c(O)c12` [Baicalein, 5,6,7-Trihydroxy-2-phenyl-4H-chromen-4-one], in data set [1] (setting [4]), the LDH was 1389.61 ± 526.34 U/L, the Mononuclear cells is recorded as 501.0 ± 310.2 ×10^4/ml and the Protein is 1.95 ± 0.35 g/L. In addition, in data set [2] (baicalein by gavage once a day), the “Alveolitis Score 0 (number of rats)” value is listed as 0, the “Alveolitis Score I (number of rats)” value is given as 8, the “Alveolitis Score II (number of rats)” value was determined as 2 and the “Alveolitis Score III (number of rats)” value came to 0. Moreover, in data set [2] (baicalein by gavage once a day), the “Pulmonary Fibrosis Score 0 (number of rats)” value is given as 0, the “Pulmonary Fibrosis Score I (number of rats)” value turned out to be 7, the “Pulmonary Fibrosis Score II (number of rats)” value was determined as 3 and the “Pulmonary Fibrosis Score III (number of rats)” value was 0. Also, the pulmonary anti-fibrotic activity entry in data set [2] is “dramatic and novel pulmonary anti-fibrotic activity”. In addition, the “extracellular fibers and mononuclear cell alveolitis of lungs compared with the BL group” value in data set [2] (baicalein by gavage, BL-rat model) was “considerably less extracellular fibers and mononuclear cell alveolitis”. Moreover, the “fibrotic score (lung)” value in data set [2] (oral baicalein, BL-induced rats) is given as “dramatic effect”. In “Acute toxicity (LD50)”, the median lethal dose (LD50) worked out at 11000 mg/kg and the acute toxicity entry is given as “about 11 g/kg body weight”. For the same molecule, the LD50 in “Acute toxicity (LD50)” (read-out: LD50) came out at 14000 mg/kg.
With `O=C(O)[C@H]1O[C@@H](Oc2cc3oc(-c4ccccc4)cc(=O)c3c(O)c2O)[C@H](O)[C@@H](O)[C@@H]1O` [Baicalin, (2S,3S,4S,5R,6S)-6-(5,6-dihydroxy-4-oxo-2-phenyl-4H-chromen-7-yloxy)-tetrahydro-3,4,5-trihydroxy-2H-pyran-2-carboxylic acid], in data set [1] (setting [5]), the LDH is 1331.61 ± 516.68 U/L, the Mononuclear cells was 465.0 ± 320.2 ×10^4/ml and the Protein came out at 1.85 ± 0.52 g/L. In data set [2] (setting [5]), the “Alveolitis Score 0 (number of rats)” value stood at 0, the “Alveolitis Score I (number of rats)” value is 7, the “Alveolitis Score II (number of rats)” value was 3 and the “Alveolitis Score III (number of rats)” value turned out to be 0. Further, in data set [2] (setting [5]), the “Pulmonary Fibrosis Score 0 (number of rats)” value was 0, the “Pulmonary Fibrosis Score I (number of rats)” value was 6, the “Pulmonary Fibrosis Score II (number of rats)” value is 4 and the “Pulmonary Fibrosis Score III (number of rats)” value worked out at 0. The pulmonary anti-fibrotic activity result in data set [2] is “dramatic and novel pulmonary anti-fibrotic activity”. Moreover, the “lung lesions (morphology) compared with the BL group” value in data set [2] (baicalin-treated BL-induced rats, day 28, HE staining) is “of a more mild nature than that of the BL group; also recorded: considerably less extracellular fibers and mononuclear cell alveolitis; also recorded: of a more mild nature than those of the BL group”. In addition, in data set [2] (oral baicalin, BL-induced rats), the “fibrotic index (lung)” value was “dramatic effect”. The acute toxicity in the data set “Acute toxicity (LD50)” is approximately 14 g/kg body weight. Besides, the 50% lethal dose (LD50) in “Acute toxicity (LD50)” (read-out: LD50) stood at 11000 mg/kg. For the same molecule, the “macroscopic view of cirrhotic livers, treated vs non-treated” value in data set [3] (450 mg/kg baicalin, n=10, P<0.001 (FIG. 8)) was “remarkable differences in the entire granular texture of the liver”. Besides, the “hydroxyproline level of liver (relative collagen content per g of liver) vs non-treated” value in data set [3] (baicalin 450 mg/kg by gavage for 3 weeks after 8 weeks CCl4, P<0.05 (FIG. 9)) was “significantly lower”. Further, the “liver fibrosis reduction as compared with saline controls” value in data set [3] (baicalin 450 mg/kg daily by gavage for 3 weeks after 8 weeks CCl4, n=10) worked out at 40%. Also, the “fibrotic index (liver)” value in data set [3] (oral baicalin 450 mg/kg, CCl4 rats (FIG. 8)) was “dramatic effect”. In data set [3], the ALT decrease result was “over 2 fold” and the AST decrease entry is recorded as “over 3 fold”.
Regarding `Cc1ccc(=O)n(-c2ccccc2)c1` [Pirfenidone, reference compound], in data set [3], the ALT decrease result is “over 2 fold” and the AST decrease result is recorded as “over 3 fold”.
